Usually Kd stands for a measure of binding affinity in units of concentration. The term IC50 denotes the concentration at which inhibition is half-maximal.

A short description of data set [1]: Blood-brain barrier values (logBB, Kin, Vi, PS). The settings on record: mice; for logBB, blood-brain equilibrium distribution: after i.v. administration 3.3 mg/kg, log(AUClast,br/AUClast,pl); for PS, permeability surface-area product / Vin / Kin, unidirectional influx rate constant: after i.v. administration; for PS, permeability surface-area product: CBF 1.07 mL/(g*min); for Vin: graphical determination (initial distribution volume in brain); for Kin, unidirectional influx rate constant: graphical determination, linear range 0-240 min (ANK6, cANK6r), 0-1440 min (tANK6). The format is in vivo, C57Bl/6N mice. The protocol: To allow for direct comparison with other peptides, four universally applied BBB parameters were determined: the blood-brain equilibrium distribution (logBB), the […] influx rate constant (Kin), the initial distribution volume in brain (Vi), and the permeability surface-area product (PS). Based on data of the concentration-time profiles and pharmacokinetic parameters after i.v. administration, the BBB parameters were calculated with the help of the formulas listed in Table 2. Graphical determination of Kin and Vi was conducted by plotting the brain concentration to plasma concentration ratio at certain time points (Cb (t)/Cp (t) [mL/g]) on the y-axis against the exposure time (AUCp (t)/Cp (t) [min]) on the x-axis. The linear range for Kin and Vi determination was between 0 and 240 min for ANK6 and cANK6r (R^2: 0.9970, 0.9996) and between 0 and 1440 min for tANK6 (R^2: 0.9758). PS was calculated on the basis of a murine cerebral blood flow (CBF) of 1.07 mL/(g*min).

The subject of data set [2] is tg-APPSwDI mice. The settings on record: intraperitoneal treatment, 4 weeks; Klein et al.; cited from earlier work.
Data set [3] has as its target human serum albumin (HSA) (Homo sapiens, UniProt P02768). The experiment in a line: Plasma protein binding, TRANSIL XL HSA binding kit. The format is in vitro ADME. The settings on record: TRANSIL XL HSA beads 7.4-420 μM, 5 μM peptide (3H-labelled + non-labelled), LSC read-out, nonlinear regression. Here is the method: (§1) Plasma protein binding (PPB) to human serum albumin (HSA) and α1-acid glycoprotein (AGP) of ANK6, tANK6, and cANK6r was analyzed according to the manufacturer’s protocol of TRANSIL^XL HSA and AGP binding kits (Sovicell GmbH, Germany). To cover a larger range of HSA and AGP concentrations, the bead concentrations in the kit were modified. For detection, a mixture of ^3H-labelled and non-labelled ANK6, tANK6, and cANK6r (final concentrations of 5μM) was added to different concentrations of HSA (7.4μM to 420μM, 10–12 different concentrations) or AGP beads (0.04μM to 3μM, 9–12 different concentrations). The amount of unbound ANK6, tANK6, and cANK6r (in %) to HSA or AGP, respectively, was determined by liquid scintillation counter (LSC) measurements. The dissociation constants (KD) as well as the free drug fractions (fu) in human plasma were calculated as described before. Calculations were based on peptide concentrations detected in the blood 4 h after single oral administration of 10 mg/kg: 0.01μM ANK6, 0.01μM tANK6, and 0.01μM cANK6r.

The nature of data set [4]: Plasma protein binding, TRANSIL XL AGP binding kit. The format is in vitro ADME, human. The settings on record: TRANSIL XL AGP beads 0.04-3 μM, 5 μM peptide (3H-labelled + non-labelled), LSC read-out, nonlinear regression. Here is the method: as §1
Data set [5] can be described thus: Cell viability assay (MTT), Aβ1-42-induced cytotoxicity. Type of data set: cell-based, rat. Here is the method: The cells (10,000 cells/well) were incubated on collagen coated 96 well plates (Gibco, Life Technologies, # A11428-03) for growth in adherent cell culture (24 h, 37°C). Oligomeric Aβ was generated by incubating monomeric Aβ1 - 42 in sodium phosphate buffer (10 mM Na2HPO4/NaH2PO4, pH 7.4) at 21°C and 600 rpm agitation for 4.5 h. […] Absorbance readout was detected with a Polarstar Optima plate reader (BMG, Germany) at 570 and 660 nm. The relative cell viability [%] was calculated by normalizing the absorbance readout to the positive control (PC12 cells incubated with buffer). The IC50 value was determined by plotting the relative cell viability [%] against the respective D-peptides' concentrations. Datasets were fitted by nonlinear regression (logistic fit; OriginPro 9.0G).

Data set [6] in a line: Free drug fraction (fu) in human plasma predicted from HSA and AGP affinities. The settings on record: predicted from affinities to HSA and AGP, at 0.01 μM peptide (blood level 4 h after oral administration). The format is in vitro ADME. Here is the method:
as §1

In data set [7] the target is T1, Aβ1-42 oligomers (Homo sapiens, UniProt P05067).
T1 construct: Lyophilized Aβ1 - 42 was dissolved in the respective peptide solution; purchased Isoloid GmbH (recombinant) or Bachem AG (synthetic)
T1 sequence (P05067 672-713 limits assumed): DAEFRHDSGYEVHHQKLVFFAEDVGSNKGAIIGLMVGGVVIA
The experiment in a line: Quantitative determination of interference with Aβ aggregate size distribution (QIAD). Type of data set: biochemical. The settings on record: for Aβ concentrations in fractions 1 and 2 (Aβ monomers): 80 μM Aβ1-42, 20 μM peptide; for Aβ oligomer concentrations in fractions 4 to 6 versus Aβ1-42 alone: 80 μM Aβ1-42 pre-incubated 2.5 h, 20 μM peptide, 40 min, density gradient centrifugation, RP-HPLC UV 214 nm, p≤0.001. Here is the method:
As soluble Aβ oligomers are currently expected to be the most neurotoxic Aβ species causing AD, the Aβ1 - 42 oligomer elimination potency of ANK6, tANK6, and cANK6r was investigated by the quantitative determination of interference with Aβ aggregate size distribution (QIAD) similar as described before. In short, lyophilized Aβ1 - 42 was dissolved in sodium phosphate buffer to a final concentration of 80μM and incubated for 2.5 h (21°C, 600 rpm) to achieve an Aβ aggregate distribution including monomers, oligomers, and higher molecular aggregates. Then, sodium phosphate buffer (control), 20μM ANK6, 20μM tANK6, or 20μM cANK6r were added and incubated for further 40 min (21°C, 600 rpm). Afterwards, the samples were loaded on top of a density gradient (5 to 50% (w/v) iodixanol, OptiPrep, Axis-Shield, Norway) and ultra-centrifuged for 3 h (4°C, 259.000× g, Optima TL-100, Beckman Coulter, USA). In the following, 14 fractions (140μL each) were taken from top to bottom, whereby the top fractions (1-2) contained Aβ monomers, the middle fractions (4–6) contained the Aβ oligomers of special interest, and the bottom fractions (11–14) contained high molecular weight co-precipitates. The left-over was diluted in 60μL 6 M guanidine hydrochloride (fraction 15). Finally, the Aβ1 - 42 concentrations in all fractions were determined via analytical RP-HPLC (reversed phase-high performance liquid chromatography) and UV absorbance detection at 214 nm.

Where two headings read alike, the source gives them in different places. Non-standard residues stand in square brackets, D forms with d. Residues, ends and D or L forms follow the SMILES beside them.

human serum albumin (HSA), sequence (P02768 25-609): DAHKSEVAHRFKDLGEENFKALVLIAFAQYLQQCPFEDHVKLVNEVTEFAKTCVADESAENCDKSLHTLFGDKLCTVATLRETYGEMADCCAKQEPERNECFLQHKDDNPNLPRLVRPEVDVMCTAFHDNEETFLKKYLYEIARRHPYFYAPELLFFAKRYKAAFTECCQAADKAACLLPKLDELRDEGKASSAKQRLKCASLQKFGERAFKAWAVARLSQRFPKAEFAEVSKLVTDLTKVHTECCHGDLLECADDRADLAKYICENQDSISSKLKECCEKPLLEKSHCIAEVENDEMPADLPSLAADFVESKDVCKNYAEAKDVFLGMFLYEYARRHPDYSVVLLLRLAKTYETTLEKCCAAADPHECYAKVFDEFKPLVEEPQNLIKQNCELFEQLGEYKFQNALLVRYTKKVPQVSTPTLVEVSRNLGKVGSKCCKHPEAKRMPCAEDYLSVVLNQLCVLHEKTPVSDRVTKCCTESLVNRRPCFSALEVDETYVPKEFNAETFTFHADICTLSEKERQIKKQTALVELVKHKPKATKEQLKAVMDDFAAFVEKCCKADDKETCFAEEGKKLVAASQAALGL

Take `CC[C@@H](C)[C@@H](NC(=O)[C@@H](CCCNC(=N)N)NC(=O)[C@@H](CCCCN)NC(=O)[C@H](N)CCCNC(=N)N)C(=O)N[C@H](CCCNC(=N)N)C(=O)N[C@H](CC(C)C)C(=O)N[C@@H](C(=O)N[C@@H](C(=O)N[C@H](CCCCN)C(=O)N[C@H](CCCCN)C(=O)N[C@H](CCCCN)C(=O)N[C@H](CCCNC(=N)N)C(N)=O)[C@H](C)O)C(C)C` [ANK6] (H-[dR][dK][dR][dI][dR][dL][dV][dT][dK][dK][dK][dR]-NH2; N-terminus assumed): in data set [1], the “logBB, blood-brain equilibrium distribution” value is recorded as “–0.401”; the “PS, permeability surface-area product” value was found to be 0.0003 mL/g/min; the Vin was found to be 0.0575 mL/g; the “Kin, unidirectional influx rate constant” value worked out at 0.0003 mL/g/min. Further, the “memory performance of tg-APPSwDI mice” value in data set [2] is on record as “a non-significant tendency for improving memory performance”. In data set [3], the “KD to HSA” value is recorded as “not analyzable”. In addition, the Kd in data set [4] came to 0.29 µM. Further, the IC50 in data set [5] (PC12 cells, MTT, 1 μM oligomeric Aβ1-42, peptide 0.008-15 μM, overnight 37°C, quintuplicates, logistic fit, read-out: IC50, reduction of Aβ1-42-induced cytotoxicity (cell viability)) came to 11.2 µM. The “overall fu in plasma (fraction unbound)” value in data set [6] is recorded as 1.43%. In data set [7], the “Aβ concentrations in fractions 1 and 2 (Aβ monomers)” value was “reduced the Aβ monomer concentrations much stronger”; the “Aβ oligomer concentrations in fractions 4 to 6 versus Aβ1-42 alone” value was “significantly lowered”.
Take `CC[C@@H](C)[C@H]1NC(=O)[C@@H](CCCNC(=N)N)NC(=O)[C@@H](CCCCN)NC(=O)[C@@H](CCCNC(=N)N)NC(=O)[C@@H](CCCNC(=N)N)NC(=O)[C@@H](CCCNC(=N)N)NC(=O)[C@@H](CCCCN)NC(=O)[C@@H](CCCCN)NC(=O)[C@@H](CCCCN)NC(=O)[C@@H]([C@H](C)O)NC(=O)[C@@H](C(C)C)NC(=O)[C@@H](CC(C)C)NC(=O)[C@@H](CCCNC(=N)N)NC1=O` [cANK6r] (cyclo([dR][dK][dR][dI][dR][dL][dV][dT][dK][dK][dK][dR][dR])): in data set [1], the “logBB, blood-brain equilibrium distribution” value was “–0.329”; the “PS, permeability surface-area product” value is 0.0003 mL/g/min; the Vin was determined as 0.0396 mL/g; the “Kin, unidirectional influx rate constant” value is 0.0003 mL/g/min. In data set [4], the Kd was 0.28 µM. The IC50 in data set [5] turned out to be 14 µM. For the same compound, the “overall fu in plasma (fraction unbound)” value in data set [6] was 1.36%. Further, in data set [7], the “Aβ concentrations in fractions 1 and 2 (Aβ monomers)” value is given as “only slightly lowered”; the “Aβ oligomer concentrations in fractions 4 to 6 versus Aβ1-42 alone” value is “significantly lowered”.
For the compound `CC[C@@H](C)[C@@H](NC(=O)[C@@H](CCCNC(=N)N)NC(=O)[C@@H](CCCCN)NC(=O)[C@H](N)CCCNC(=N)N)C(=O)N[C@H](CCCNC(=N)N)C(=O)N[C@H](CC(C)C)C(=O)N[C@@H](C(=O)N[C@@H](C(=O)N[C@H](CCCCN)C(=O)N[C@H](CCCCN)C(=O)N[C@H](CCCCN)C(=O)N[C@H](CCCNC(=N)N)C(=O)N[C@H](CCCNC(=N)N)C(=O)N[C@H](CCCCN)C(=O)N[C@H](CCCNC(=N)N)C(=O)N[C@@H](C(=O)N[C@H](CCCNC(=N)N)C(=O)N[C@H](CC(C)C)C(=O)N[C@@H](C(=O)N[C@@H](C(=O)N[C@H](CCCCN)C(=O)N[C@H](CCCCN)C(=O)N[C@H](CCCCN)C(=O)N[C@H](CCCNC(=N)N)C(N)=O)[C@H](C)O)C(C)C)[C@H](C)CC)[C@H](C)O)C(C)C` [tANK6] (H-[dR][dK][dR][dI][dR][dL][dV][dT][dK][dK][dK][dR][dR][dK][dR][dI][dR][dL][dV][dT][dK][dK][dK][dR]-NH2; N-terminus assumed), in data set [1], the “logBB, blood-brain equilibrium distribution” value came out at 0.335; the “PS, permeability surface-area product” value was determined as 0.0016 mL/g/min; the Vin is 0.5833 mL/g; the “Kin, unidirectional influx rate constant” value came out at 0.0016 mL/g/min. The Kd in data set [4] was 0.06 µM. Further, in data set [5], the IC50 turned out to be 4.4 µM. Further, the “overall fu in plasma (fraction unbound)” value in data set [6] is listed as 0.29%. Moreover, in data set [7], the “Aβ concentrations in fractions 1 and 2 (Aβ monomers)” value is recorded as “reduced the Aβ monomer concentrations much stronger”; the “Aβ oligomer concentrations in fractions 4 to 6 versus Aβ1-42 alone” value was “significantly lowered”.

(Values after publication PMC6218115, “In Vitro Potency and Preclinical Pharmacokinetic Comparison of All-D-Enantiomeric Peptides Developed for the Treatment of Alzheimer’s Disease” (Journal of Alzheimer's Disease, 2018).)
